For one series, the system named is BRD4 BD1. Format: binding, human. Particulars: TR-FRET. As for the experimental part: (§1) As a strategic decision, every compound synthesized across all of GSK’s bromodomain research projects was tested in both a BRD4 BD1 and a BRD4 BD2 TR-FRET assay as part of tier 1 data generation. […] LipE is a straightforward, yet powerful metric for medicinal chemistry teams to normalize potency relative to lipophilicity, a critical factor both for parameters of the human dose equation and also for promiscuity.[43],[44] To aid interpretation, diagonal lines representing different LipE values are shown, with the most desirable space found toward the top left-hand area of the plot representing molecules with the comparatively highest potency per unit of lipophilicity.
(§2) All TR-FRET and hWB cytokine assays have been described previously.[54]

A further series deals with BRD4 BD2. In words: BRD4 BD2 TR-FRET assay. In kind it is binding, human. As for the experimental part: as §1, §2
In another series the test system is MCP-1. The series is described as follows: LPS-stimulated human whole blood (hWB) MCP-1 release assay. Format: cell-based. Conditions: for IC50: LPS-stimulated human whole blood.
Text: The utility of a chemical probe in target validation is directly related to its quality, with important publications detailing requirements to aid researchers.[36]−[38] […] It was accepted that selectivity would be judged initially through a mutant BRD4 TR-FRET assay and would likely shift depending on the protein construct and assay format. […] Previous studies have shown that BET BD1 inhibition is sufficient to inhibit in vitro production of MCP-1 in LPS-stimulated hWB and, as such, served as a relevant measure of cellular target engagement and, concomitantly, proof of cellular permeability.[12],[39] Selectivity over other human bromodomains outside of the BET family, known collectively as non-BET bromodomains, was also required,[40] with a ≥ 100-fold selectivity window targeted. To ensure the molecules remained within developable chemical space, a target property forecast index (PFI) as defined by chromLogDpH7.4 + number of aromatic rings ≤6 was set.[41]
(§3) To understand cellular target engagement, 21 was tested in an LPS-stimulated hWB assay measuring inhibition of the inflammatory mediator MCP-1 secretion.
as §2

The nature of the next series: CAD aqueous solubility. As for the experimental part:
as §3
ChromatographicLogD at pH 7.4, artificial membrane permeability, CLND solubility, and CAD solubility were measured using published protocols.[55]

Series [1] is described as follows: Chromatographic LogD at pH 7.4. Particulars: pH 7.4.
Series [2] in a line: CLND kinetic aqueous solubility. Conditions: aqueous.
Where [3] appears, read: read-out: hWB MCP-1 pIC50 (converted).

≈ marks a conversion by molar mass, not a printed value. Where “and” joins values, the source holds several entries; their conditions need not be identical. Equal entries are not always repeated. Structures can show the parent of a compound that is named as a salt. Where two headings read alike, the source gives them in different places.

`Cc1cc(-c2nc3ccccc3n2C[C@@H]2CCCN(C(=O)C3CCC(N)CC3)C2)cn(C)c1=O` (stereo in doubt) [Compound 28, 5-(1-(((S)-1-((1r,4R)-4-Aminocyclohexane-1-carbonyl)piperidin-3-yl)methyl)-1H-benzo [d]imidazole-2-yl)-1,3-dimethylpyridin-2(1H)-one]: in the series with BRD4 BD1, the “BRD4 BD1 FRET pIC50” value was found to be 7.9 and the “fold selectivity (BRD4 BD1 over BRD4 BD2)” value (shortened to “fold selectivity”) was determined as 631 fold. Moreover, the “BRD4 BD2 FRET pIC50” value in the series with BRD4 BD2 is 5.1. Besides, the IC50 in the series with MCP-1 (setting [3]) was 316 nM. For the same molecule, in the series “CAD aqueous solubility”, the solubility (as a rule, how much of the substance goes into solution per volume) is not below 155 µg/mL. For the same molecule, in series [1], the chromatographic logD (in general, lipophilicity estimated from chromatographic retention) was determined as 1.4.

`CC(=O)N1CCC[C@H](Cn2c(-c3cc(C)c(=O)n(C)c3)nc3ccccc32)C1` [(R)-12, (R)-5-(1-((1-Acetylpiperidin-3-yl)methyl)-1H-benzo[d]imidazole-2-yl)-1,3-dimethylpyridin-2(1H)-one]: in the series on BRD4 BD1, the “BRD4 BD1 FRET pIC50” value was determined as 7.5 and the “fold selectivity” value was 16 fold. Moreover, the “BRD4 BD2 FRET pIC50” value in the series on BRD4 BD2 came out at 6.3. In series [1], this molecule had a chromatographic logD of 2.3. In series [2], the solubility is not below 169 µg/mL.

Regarding `Cc1cc(-c2nc3ccccc3n2C[C@@H]2CCCN(C(=O)CCCN)C2)cn(C)c1=O` [Compound 21, (S)-5-(1-((1-(4-Aminobutanoyl)piperidin-3-yl)methyl)-1H-benzo[d]imidazole-2-yl)-1,3-dimethylpyridin-2(1H)-one], in the series with BRD4 BD1, the “BRD4 BD1 FRET pIC50” value was 7.8 and the “fold selectivity” value came to 158 fold. In addition, in the series on BRD4 BD2, the “BRD4 BD2 FRET pIC50” value turned out to be 5.6. Moreover, the IC50 with MCP-1 (read-out: hWB MCP-1 IC50) came out at 500 nM. Further, the IC50 in the series with MCP-1 (setting [3]) is 501 nM. Further, in the series with MCP-1 (hWB MCP-1 vs BRD4 BD1 TR-FRET), the “drop of hWB activity compared to BRD4 BD1 potency” value is reported as 40 fold. In the series “CAD aqueous solubility”, this molecule displayed a solubility of 113 µg/mL (≈ 268 µM). The molecule also yielded a chromatographic logD in series [1] of 1.2.

As to `Cc1cc(-c2nc3ccccc3n2C[C@@H]2CCCN(C(=O)C3CNC3)C2)cn(C)c1=O` [Compound 22, (S)-5-(1-((1-(Azetidine-3-carbonyl)piperidin-3-yl)methyl)-1H-benzo[d]imidazole-2-yl)-1,3-dimethylpyridin-2(1H)-one], in the series with BRD4 BD1, the “BRD4 BD1 FRET pIC50” value turned out to be 8.0 and the “fold selectivity” value is 126 fold. Further, in the series with BRD4 BD2, the “BRD4 BD2 FRET pIC50” value was 5.9. For the same molecule, in the series on MCP-1 (setting [3]), the IC50 is 631 nM. For the same molecule, the solubility in “CAD aqueous solubility” is not below 169 µg/mL. The molecule also showed a chromatographic logD in series [1] of 1.2.

Consider `Cc1cc(-c2nc3ccccc3n2C[C@@H]2CCCN(C(=O)[C@H]3C[C@H](N)C3)C2)cn(C)c1=O` [Compound 23, 5-(1-(((S)-1-((1r,3S)-3-Aminocyclobutane-1-carbonyl)piperidin-3-yl)methyl)-1H-benzo[d]imidazole-2-yl)-1,3-dimethylpyridin-2(1H)-one], for which, in the series on BRD4 BD1, the “BRD4 BD1 FRET pIC50” value is reported as 7.9 and the “fold selectivity” value was found to be 316 fold. For the same molecule, the “BRD4 BD2 FRET pIC50” value in the series with BRD4 BD2 is reported as 5.4. For the same molecule, the IC50 in the series with MCP-1 (setting [3]) was 200 nM. In addition, in “CAD aqueous solubility”, the solubility was not below 230 µg/mL. In series [1], this molecule yielded a chromatographic logD of 1.2.

`Cc1cc(-c2nc3ccccc3n2C[C@@H]2CCCN(C(=O)[C@H]3CCNC3)C2)cn(C)c1=O` [Compound 24, 1,3-Dimethyl-5-(1-(((S)-1-((S)-pyrrolidine-3-carbonyl)piperidin-3-yl)methyl)-1H-benzo[d]imidazole-2-yl)pyridin-2(1H)-one]: in the series with BRD4 BD1, the “BRD4 BD1 FRET pIC50” value is listed as 7.6 and the “fold selectivity” value turned out to be 200 fold. For the same molecule, in the series on BRD4 BD2, the “BRD4 BD2 FRET pIC50” value turned out to be 5.3. The IC50 in the series on MCP-1 (setting [3]) is 1000 nM. The same molecule returned a solubility in “CAD aqueous solubility” not below 208 µg/mL. The chromatographic logD in series [1] worked out at 1.3.

With `Cc1cc(-c2nc3ccccc3n2C[C@@H]2CCCN(C(=O)[C@H]3CC[C@H](N)C3)C2)cn(C)c1=O` [Compound 25, 5-(1-(((S)-1-((1S,3S)-3-Aminocyclopentane-1-carbonyl)piperidin-3-yl)methyl)-1H-benzo[d]imidazole-2-yl)-1,3-dimethylpyridin-2(1H)-one], in the series with BRD4 BD1, the “BRD4 BD1 FRET pIC50” value is 7.7; the “fold selectivity” value is 500 fold and 501 fold. Further, in the series with BRD4 BD2, the “BRD4 BD2 FRET pIC50” value is on record as 5.0. The IC50 with MCP-1 (setting [3]) is 1000 nM. The solubility in the series “CAD aqueous solubility” was not below 157 µg/mL. For the same molecule, the chromatographic logD in series [1] was 1.4.

On to `Cc1cc(-c2nc3ccccc3n2C[C@@H]2CCCN(C(=O)c3cnc[nH]3)C2)cn(C)c1=O` [Compound 26, (S)-5-(1-((1-(1H-Imidazole-5-carbonyl)piperidin-3-yl)methyl)-1H-benzo[d]imidazole-2-yl)-1,3-dimethylpyridin-2(1H)-one, Formic Acid Salt], for which, in the series with BRD4 BD1, the “BRD4 BD1 FRET pIC50” value was determined as 7.0 and the “fold selectivity” value is listed as 126 fold. In the series with BRD4 BD2, the “BRD4 BD2 FRET pIC50” value is given as 4.9. Moreover, the IC50 in the series with MCP-1 (setting [3]) is 2510 nM. For the same molecule, the solubility in the series “CAD aqueous solubility” is not below 160 µg/mL. Moreover, the chromatographic logD in series [1] was 1.9.

As for `Cc1cc(-c2nc3ccccc3n2C[C@@H]2CCCN(C(=O)C3CCNCC3)C2)cn(C)c1=O` [Compound 27, (S)-1,3-Dimethyl-5-(1-((1-(piperidine-4-carbonyl)piperidin-3-yl)methyl)-1H-benzo[d]imidazole-2-yl)pyridin-2(1H)-one], in the series on BRD4 BD1, the “BRD4 BD1 FRET pIC50” value is 7.5 and the “fold selectivity” value was 398 fold. In addition, the “BRD4 BD2 FRET pIC50” value with BRD4 BD2 was 4.9. In addition, the IC50 in the series with MCP-1 (setting [3]) was 1000 nM. The solubility in the series “CAD aqueous solubility” was not below 215 µg/mL. In series [1], this molecule returned a chromatographic logD of 1.3.

Take `Cc1cc(-c2nc3ccccc3n2C[C@@H]2CCCN(C(=O)C3CCCN(C)C3)C2)cn(C)c1=O` (stereo partly drawn) [Compound 29, 1,3-Dimethyl-5-(1-(((3S)-1-(1-methylpiperidine-3-carbonyl)piperidin-3-yl)methyl)-1H-benzo[d]imidazole-2-yl)pyridin-2(1H)-one]: in the series with BRD4 BD1, the “BRD4 BD1 FRET pIC50” value came to 6.8 and the “fold selectivity” value is recorded as 50 fold. Also, in the series on BRD4 BD2, the “BRD4 BD2 FRET pIC50” value turned out to be 5.1. Also, the IC50 in the series with MCP-1 (setting [3]) was 1580 nM. The same molecule had a solubility in the series “CAD aqueous solubility” not below 204 µg/mL. Besides, the chromatographic logD in series [1] was determined as 1.7.

Regarding `Cc1cc(-c2nc3ccccc3n2C[C@@H]2CCCN(C(=O)C3CCN(C)CC3)C2)cn(C)c1=O` [Compound 30, (S)-1,3-Dimethyl-5-(1-((1-(1-methylpiperidine-4-carbonyl)piperidin-3-yl)methyl)-1H-benzo[d]imidazole-2-yl)pyridin-2(1H)-one], in the series with BRD4 BD1, the “BRD4 BD1 FRET pIC50” value is reported as 7.6 and the “fold selectivity” value is 631 fold. In the series with BRD4 BD2, the “BRD4 BD2 FRET pIC50” value was 4.8. Further, in the series on MCP-1 (setting [3]), the IC50 was 251 nM. Besides, the solubility in “CAD aqueous solubility” is not below 237 µg/mL. In series [1], the chromatographic logD is 1.5.

As to `Cc1cc(-c2nc3ccccc3n2C[C@@H]2CCCN(C(=O)C3CCOCC3)C2)cn(C)c1=O` [Compound 32, (S)-1,3-Dimethyl-5-(1-((1-(tetrahydro-2H-pyran-4-carbonyl)piperidin-3-yl)methyl)-1H-benzo[d]imidazole-2-yl)pyridin-2(1H)-one], in the series with BRD4 BD1, the “BRD4 BD1 FRET pIC50” value came out at 6.7 and the “fold selectivity” value is on record as 100 fold. In the series on BRD4 BD2, the “BRD4 BD2 FRET pIC50” value stood at 4.7. Also, in the series with MCP-1 (setting [3]), the IC50 was 794 nM. The molecule further came in with a solubility in the series “CAD aqueous solubility” not below 245 µg/mL. The molecule also showed a chromatographic logD in series [1] of 2.7.

`CC(=O)N1CCC(C(=O)N2CCC[C@@H](Cn3c(-c4cc(C)c(=O)n(C)c4)nc4ccccc43)C2)CC1` [Compound 33, (S)-5-(1-((1-(1-Acetylpiperidine-4-carbonyl)piperidin-3-yl)methyl)-1H-benzo[d]imidazole-2-yl)-1,3-dimethylpyridin-2(1H)-one]: in the series with BRD4 BD1, the “BRD4 BD1 FRET pIC50” value was determined as 6.5 and the “fold selectivity” value is 63 fold. For the same molecule, the “BRD4 BD2 FRET pIC50” value in the series on BRD4 BD2 was determined as 4.7. For the same molecule, the IC50 in the series with MCP-1 (setting [3]) is 2000 nM. In “CAD aqueous solubility”, this molecule showed a solubility not below 205 µg/mL. For the same molecule, in series [1], the chromatographic logD came out at 2.2.

For the molecule `Cc1cc(-c2nc3ccccc3n2C[C@@H]2CCCN(C(=O)C3CCN(CC(F)(F)F)CC3)C2)cn(C)c1=O` [Compound 36, (S)-1,3-Dimethyl-5-(1-((1-(1-(2,2,2-trifluoroethyl)piperidine-4-carbonyl)piperidin-3-yl)methyl)-1H-benzo[d]imidazole-2-yl)pyridin-2(1H)-one], in the series on BRD4 BD1, the “BRD4 BD1 FRET pIC50” value was 6.3 and the “fold selectivity” value was determined as 40 fold. For the same molecule, in the series with BRD4 BD2, the “BRD4 BD2 FRET pIC50” value came to 4.7. For the same molecule, the IC50 in the series with MCP-1 (setting [3]) was 1260 nM. In the series “CAD aqueous solubility”, this molecule returned a solubility not below 201 µg/mL. For the same molecule, the chromatographic logD in series [1] turned out to be 4.2.

The values are drawn from PMC10726358 (Journal of Medicinal Chemistry, 2023).
